Assay results reported in ChEMBL document CHEMBL3600308, “Antiproliferative Trihydroxyalkylcyclohexenones from Pleiogynium timoriense” (J Nat Prod, 2015).

Test system: A2780
Test: Antiproliferative activity against drug-sensitive human A2780 cells assessed as inhibition of cell growth after 2 days by Alamar Blue assay
Assay type: functional, cell-based
Settings: A2780, 48 h

IC50 [nM]	Compound
700	CCCCCCCC/C=C\CCCCCCCCC[C@]1(O)C(=O)C=C[C@H](O)[C@H]1O
800	CCCCCCCC/C=C\CCCCCCCCCCC[C@]1(O)C(=O)C=C[C@H](O)[C@H]1O
800	CCCCCCCC/C=C\CCCCCCC[C@]1(O)C(=O)C=C[C@H](O)[C@H]1O
